Measurements published in PubChem BioAssay AID248 (DTP/NCI, 2004).
Values joined by “and” are separate entries in the source; they are usually repeats but may differ in a detail not shown here. Identical values can stand only once. Inconclusive results and toxic doses are left out.

Tested on: L1210 leukemia ip in BDF1 mice, survival T/C
Test: NCI In Vivo Anticancer Drug Screen. Data for tumor model L1210 Leukemia (intraperitoneal) in B6D2F1 (BDF1) mice
Details: endpoint: mean survival time, higher = longer survival
Summary of the method: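 Read-out is survival time, reported as the treated-group measurement over the vehicle-control measurement.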

[1] = dose: 100.0 mg/kg/injection, schedule: Q01DX001 (ip), vehicle: carboxymethylcellulose (CMC)
[2] = dose: 200.0 mg/kg/injection, schedule: Q01DX001 (ip), vehicle: carboxymethylcellulose (CMC)
[3] = dose: 400.0 mg/kg/injection, schedule: Q01DX001 (ip), vehicle: carboxymethylcellulose (CMC)
[4] = dose: 100.0 mg/kg/injection, schedule: Q01DX001 (ip), vehicle: saline
[5] = dose: 400.0 mg/kg/injection, schedule: Q01DX001 (ip), vehicle: saline
[6] = dose: 50.0 mg/kg/injection, schedule: Q01DX009 (ip), vehicle: saline with Tween-80
[7] = dose: 100.0 mg/kg/injection, schedule: Q01DX009 (ip), vehicle: saline with Tween-80
[8] = dose: 200.0 mg/kg/injection, schedule: Q01DX009 (ip), vehicle: saline with Tween-80
[9] = dose: 100.0 mg/kg/injection, schedule: Q01DX001 (ip), vehicle: other

How did the T/C [1] turn out when CNC(=O)Nc1cccc2ccccc12 was run?
Its T/C is 95 % of control.

What about the T/C (dose: 100.0 mg/kg/injection, schedule: Q01DX009 (ip), vehicle: carboxymethylcellulose (CMC)) of the same compound?
Its T/C is 93 % of control and 89 % of control.

And the T/C (dose: 100.0 mg/kg/injection, schedule: Q04DX002 (ip), vehicle: carboxymethylcellulose (CMC))?
Its T/C is 106 % of control.

What about the T/C (dose: 100.0 mg/kg/injection, schedule: Q04DX003 (ip), vehicle: carboxymethylcellulose (CMC)) of the same compound?
Its T/C is 97 % of control.

And the T/C [2]?
The T/C was 101 % of control.

And the T/C (dose: 200.0 mg/kg/injection, schedule: Q01DX009 (ip), vehicle: carboxymethylcellulose (CMC))?
The T/C was 98 % of control and 101 % of control.

What about the T/C (dose: 200.0 mg/kg/injection, schedule: Q04DX002 (ip), vehicle: carboxymethylcellulose (CMC)) of the same compound?
The T/C was 100 % of control.

What about the T/C (dose: 200.0 mg/kg/injection, schedule: Q04DX003 (ip), vehicle: carboxymethylcellulose (CMC)) of the same compound?
The T/C was 96 % of control.

What about the T/C [3] of the same compound?
Its T/C is 97 % of control.

What about the T/C (dose: 400.0 mg/kg/injection, schedule: Q01DX009 (ip), vehicle: carboxymethylcellulose (CMC)) of the same compound?
Its T/C is 93 % of control and 86 % of control.

What about the T/C (dose: 400.0 mg/kg/injection, schedule: Q04DX002 (ip), vehicle: carboxymethylcellulose (CMC)) of the same compound?
The T/C was 99 % of control.

What about the T/C (dose: 400.0 mg/kg/injection, schedule: Q04DX003 (ip), vehicle: carboxymethylcellulose (CMC)) of the same compound?
Its T/C is 97 % of control.

For CN(C)Cc1ccc(NC(=O)c2ccc(C(=O)Nc3ccc(CN(C)C)cc3)cc2)cc1, which T/C (dose: 15.0 mg/kg/injection, schedule: Q01DX Z (ip), vehicle: carboxymethylcellulose (CMC)) is on record?
The T/C was 103 % of control.

And the T/C (dose: 30.0 mg/kg/injection, schedule: Q01DX Z (ip), vehicle: carboxymethylcellulose (CMC))?
Its T/C is 106 % of control.

What about the T/C (dose: 60.0 mg/kg/injection, schedule: Q01DX Z (ip), vehicle: carboxymethylcellulose (CMC)) of the same compound?
The T/C was 106 % of control.

What about the T/C (dose: 120.0 mg/kg/injection, schedule: Q01DX Z (ip), vehicle: carboxymethylcellulose (CMC)) of the same compound?
Its T/C is 117 % of control.

For CCc1c(Nc2ccc(Cl)c(Cl)c2)[nH]c(N)nc1=S, which T/C (dose: 100.0 mg/kg/injection, schedule: Q01DX Z (ip), vehicle: methylcellulose (MC)) is on record?
Its T/C is 90 % of control.

What about the T/C (dose: 200.0 mg/kg/injection, schedule: Q01DX Z (ip), vehicle: methylcellulose (MC)) of the same compound?
The T/C was 105 % of control.

What does the source list for O=C(Nc1cc([N+](=O)[O-])ccc1F)Oc1ccc(OCc2ccccc2)cc1?
T/C (dose: 100.0 mg/kg/injection, schedule: Q04DX002 (ip), vehicle: Klucel (hydroxypropylcellulose) (HPC)): 103 % of control; T/C (dose: 200.0 mg/kg/injection, schedule: Q04DX002 (ip), vehicle: Klucel (hydroxypropylcellulose) (HPC)): 89 % of control; T/C (dose: 400.0 mg/kg/injection, schedule: Q04DX002 (ip), vehicle: Klucel (hydroxypropylcellulose) (HPC)): 106 % of control

COC(=O)c1cc(C2OCC3OC(C)(C)OC32)[nH]n1 (stereo unspecified) was tested. Which T/C (dose: 100.0 mg/kg/injection, schedule: Q01DX005 (ip), vehicle: saline) did it give?
The T/C was 96 % of control.

What about the T/C (dose: 200.0 mg/kg/injection, schedule: Q01DX005 (ip), vehicle: saline) of the same compound?
The T/C was 100 % of control.

Which results are given for CC1CCC(=O)OCCCC(=O)C1 (stereo unspecified)?
T/C [4]: 93 % of control; T/C [5]: 95 % of control

What does the source list for OC(Cc1ccncc1)(c1ccccc1)c1ccccc1?
T/C (dose: 100.0 mg/kg/injection, schedule: Q04DX003 (ip), vehicle: saline with Tween-80): 88 % of control; T/C (dose: 200.0 mg/kg/injection, schedule: Q04DX003 (ip), vehicle: saline with Tween-80): 88 % of control; T/C (dose: 400.0 mg/kg/injection, schedule: Q04DX003 (ip), vehicle: saline with Tween-80): 109 % of control

Which T/C [6] does the source give for CC(C)(C)c1ccc2c(c1)CCCC2 here?
Its T/C is 93 % of control.

And the T/C [7]?
Its T/C is 89 % of control.

And the T/C [8]?
The T/C was 96 % of control.

How did the T/C (dose: 25.0 mg/kg/injection, schedule: Q01DX009 (ip), vehicle: saline) turn out when CSc1nc(C)cc(SC(=N)N)n1 was run?
Its T/C is 105 % of control.

And the T/C (dose: 25.0 mg/kg/injection, schedule: Q04DX003 (ip), vehicle: saline)?
The T/C was 98 % of control.

What about the T/C (dose: 50.0 mg/kg/injection, schedule: Q01DX009 (ip), vehicle: saline) of the same compound?
Its T/C is 102 % of control.

And the T/C (dose: 50.0 mg/kg/injection, schedule: Q04DX003 (ip), vehicle: saline)?
Its T/C is 97 % of control.

And the T/C (dose: 100.0 mg/kg/injection, schedule: Q04DX003 (ip), vehicle: saline)?
Its T/C is 100 % of control and 101 % of control.

With C=CCn1cnc2c(=S)nc[nH]c21 as the compound, how does the T/C (dose: 12.0 mg/kg/injection, schedule: Q01DX015 (ip), vehicle: other) read?
The T/C was 124 % of control.

What about the T/C (dose: 37.5 mg/kg/injection, schedule: Q01DX Z (ip), vehicle: alkali diluted with saline) of the same compound?
Its T/C is 166 % of control.

And the T/C (dose: 63.0 mg/kg/injection, schedule: Q01DX015 (ip), vehicle: other)?
The T/C was 92 % of control.

What about the T/C (dose: 75.0 mg/kg/injection, schedule: Q01DX Z (ip), vehicle: alkali diluted with saline) of the same compound?
The T/C was 114 % of control.

What about the T/C [9] of the same compound?
The T/C was 116 % of control.

What about the T/C (dose: 108.0 mg/kg/injection, schedule: Q01DX015 (ip), vehicle: other) of the same compound?
The T/C was 87 % of control.

What about the T/C (dose: 150.0 mg/kg/injection, schedule: Q01DX Z (ip), vehicle: alkali diluted with saline) of the same compound?
The T/C was 92 % of control.

Which results are given for COc1ccc(/C=N\NC(=O)CNC(=O)Nc2cccc(Cl)c2)cc1OC?
T/C [6]: 88 % of control; T/C [7]: 92 % of control; T/C [8]: 88 % of control

For CCC1=CCC=CC1, which T/C (dose: 50.0 mg/kg/injection, schedule: Q01DX001 (ip), vehicle: carboxymethylcellulose (CMC)) is on record?
Its T/C is 101 % of control.

And the T/C [1]?
Its T/C is 104 % of control.

And the T/C [2]?
The T/C was 104 % of control.

What about the T/C [3] of the same compound?
The T/C was 109 % of control.

For CCCCCCCCOP(=O)(N1CC1C)N1CC1C (stereo unspecified), which T/C (dose: 33.0 mg/kg/injection, schedule: Q01DX003 (ip), vehicle: acetone) is on record?
Its T/C is 102 % of control.

And the T/C (dose: 33.0 mg/kg/injection, schedule: Q01DX009 (ip), vehicle: saline with Tween-80)?
Its T/C is 114 % of control.

And the T/C (dose: 33.0 mg/kg/injection, schedule: Q01DX009 (ip), vehicle: saline)?
Its T/C is 116 % of control.

And the T/C (dose: 50.0 mg/kg/injection, schedule: Q01DX003 (ip), vehicle: acetone)?
The T/C was 96 % of control.

What about the T/C [6] of the same compound?
The T/C was 122 % of control.

What about the T/C (dose: 75.0 mg/kg/injection, schedule: Q01DX003 (ip), vehicle: acetone) of the same compound?
The T/C was 113 % of control.

What about the T/C (dose: 100.0 mg/kg/injection, schedule: Q01DX001 (ip), vehicle: acetone) of the same compound?
The T/C was 103 % of control.

And the T/C (dose: 200.0 mg/kg/injection, schedule: Q01DX001 (ip), vehicle: acetone)?
The T/C was 114 % of control.

C=CCOCC(O)CN1CCC(C)CC1 (stereo unspecified) was tested. Which T/C (dose: 6.0 mg/kg/injection, schedule: Q04DX003 (ip), vehicle: Klucel (hydroxypropylcellulose) (HPC)) did it give?
Its T/C is 95 % of control.

What about the T/C (dose: 12.0 mg/kg/injection, schedule: Q04DX003 (ip), vehicle: Klucel (hydroxypropylcellulose) (HPC)) of the same compound?
The T/C was 95 % of control.

What about the T/C (dose: 25.0 mg/kg/injection, schedule: Q04DX003 (ip), vehicle: Klucel (hydroxypropylcellulose) (HPC)) of the same compound?
Its T/C is 97 % of control.

And the T/C (dose: 50.0 mg/kg/injection, schedule: Q04DX003 (ip), vehicle: Klucel (hydroxypropylcellulose) (HPC))?
The T/C was 98 % of control.

And the T/C (dose: 100.0 mg/kg/injection, schedule: Q04DX003 (ip), vehicle: Klucel (hydroxypropylcellulose) (HPC))?
The T/C was 95 % of control.

With Cc1ccc(S(=O)(=O)N2CC(=O)N(S(=O)(=O)c3ccc(C)cc3)CC2=O)cc1 as the compound, how does the T/C [9] read?
The T/C was 106 % of control.

And the T/C (dose: 200.0 mg/kg/injection, schedule: Q01DX001 (ip), vehicle: other)?
The T/C was 103 % of control.

And the T/C (dose: 400.0 mg/kg/injection, schedule: Q01DX001 (ip), vehicle: other)?
The T/C was 106 % of control.

What does the source list for O=c1c2[nH]cnc2ncn1Cc1ccccc1?
T/C (dose: 100.0 mg/kg/injection, schedule: Q01DX001 (ip), vehicle: Klucel (hydroxypropylcellulose) (HPC)): 102 % of control; T/C (dose: 200.0 mg/kg/injection, schedule: Q01DX001 (ip), vehicle: Klucel (hydroxypropylcellulose) (HPC)): 98 % of control; T/C (dose: 400.0 mg/kg/injection, schedule: Q01DX001 (ip), vehicle: Klucel (hydroxypropylcellulose) (HPC)): 109 % of control

With CCCC#C/C=C1/C=CC(=O)O1 as the compound, how does the T/C (dose: 75.0 mg/kg/injection, schedule: Q01DX001 (ip), vehicle: carboxymethylcellulose (CMC)) read?
Its T/C is 94 % of control.

And the T/C (dose: 150.0 mg/kg/injection, schedule: Q01DX001 (ip), vehicle: carboxymethylcellulose (CMC))?
The T/C was 97 % of control.

For Cc1coc2ccccc2c1=O, which T/C (dose: 50.0 mg/kg/injection, schedule: Q04DX002 (ip), vehicle: gum acacia) is on record?
Its T/C is 114 % of control.

What about the T/C (dose: 100.0 mg/kg/injection, schedule: Q04DX002 (ip), vehicle: gum acacia) of the same compound?
Its T/C is 117 % of control.

And the T/C (dose: 200.0 mg/kg/injection, schedule: Q04DX002 (ip), vehicle: gum acacia)?
The T/C was 107 % of control.

How did the T/C (dose: 50.0 mg/kg/injection, schedule: Q01DX Z (ip), vehicle: other) turn out when CC1=C(O)c2ccccc2C(=O)C1=O was run?
The T/C was 93 % of control.

How did the T/C (dose: 50.0 mg/kg/injection, schedule: Q01DX001 (ip), vehicle: saline) turn out when OCC(F)(F)F was run?
Its T/C is 98 % of control.

And the T/C [4]?
Its T/C is 110 % of control.

And the T/C (dose: 200.0 mg/kg/injection, schedule: Q01DX001 (ip), vehicle: saline)?
Its T/C is 102 % of control.

What about the T/C [5] of the same compound?
The T/C was 108 % of control.

With C=CC[n+]1ccccc1Br as the compound, how does the T/C (dose: 62.0 mg/kg/injection, schedule: Q01DX015 (ip), vehicle: water) read?
The T/C was 102 % of control.

What about the T/C (dose: 125.0 mg/kg/injection, schedule: Q01DX015 (ip), vehicle: water) of the same compound?
Its T/C is 106 % of control.
